Test results from patent US20240239790A1, “7-Morpholino-1,6-Naphthyridin-5-yl Derivatives and Pharmaceutical Compositions Thereof Useful as DNA-PK Inhibitor” (adMare Therapeutics Society, priority 2021, published 2024).
Where two headings read alike, the source gives them in different places. Marks after values point to notes of the source that are not given here.

Columns and labels:
[1] = system: FaDu tumour xenograft; test: Clonogenic Survival, FaDu tumour xenograft-bearing Rag2M mice, compound ± radiation (CS-ER); assay type: in vivo, mouse
Method: FaDu tumour xenograft-bearing Rag2M mice were treated with single administrations of test compounds at indicated doses±radiation as indicated, at time 0.
Mice were irradiated at 1 h post compound administration (unless otherwise indicated), with 300 KV X-rays and a 10 mA current from a Precision XRAD 300 machine (USA) with a beam-hardening filter (2 mm Al+0.25 mm Cu+0.75 mm Sn) and an adjustable site to specimen distance (SSD) at a dose of 8-10 Gy, delivered at a rate of ˜1.05 Gy/min.
Mice were terminated at times after irradiation as indicated, and tumour tissues excised. A portion of tumour approximately 300-500 mg was briefly minced using sterile scissors and placed in a pre-weighed gentleMACS C tube (Miltenyi Biotec cat #130-093-237) and weighed with combined tumour+tube mass recorded. A 5 mL aliquot of enzyme cocktail comprising of trypsin/DNase/collagenase/EDTA-Na2 in PBS (1 mg/ml trypsin+0.26 mg/ml DNase+0.21 mg/ml collagenase+2 mM EDTA-Na2) was added to the tube, which is then run on the gentleMACS Dissociator disaggregation system. Tubes were then incubated at 37° C. and continually rotated for 20 min before again running on the gentleMACS Dissociator program. Samples were then diluted with 5 ml MEM medium containing 5% FBS and filtered (Falcon cell strainer 100 μm, cat #352360). After centrifugation (1100 rpm for 6 minutes at 4° C.) supernatant was aspirated and the cells resuspended in 4 ml cold growth medium (MEM+10% FBS)+50 ul DNase (5 mg/ml DNase solution). Cell numbers were counted from the same cell solution using a hemacytometer. Appropriate dilutions (control: 10,000 cells/ml; 8Gy: 400,000 cells/ml; drug+radiation treated; 500,000 cells/ml) were made and cells then plated in triplicate: control: 100 μl and 300 μl (1000 and 3000 cells/6 cm tissue culture plate); 8Gy: 30 μl, 105 μl and 350 μl (12000, 42000 cells/6 cm plates and 140000 cells/10 cm plate); drug+8Gy: 70 μl, 300p, 1.2 ml (35000 and 150000 cells/6 cm plates and 600000 cells/10 cm plates—only duplicate). Plates were incubated at 37° C. (in a 5% CO2, 5% O2 and balance N2 environment) for 14 days. For a final and accurate automated live-cell counting a solution of Hoechst33342 (0.01 mg/ml)+Propidium Iodide (0.004 mg/ml) in 0.9% saline was mixed with an appropriate cell number dilution of the samples in 96 well plates (50 ul staining solution+50 ul cell suspension of 10000 cells/ml) and images are taken of the wells and cell numbers are calculated by a computer program.
After 14 days plates were removed from the incubator, rinsed with PBS and stained with cold 2 g/L Malachite green oxalate salt solution (Sigma-Aldrich, cat #M6880) for 30 minutes at room temperature. Plates were rinsed with distilled water and dried. Pictures were obtained of the plates and colonies consisting of 50 or more cells were counted using a Stuart Scientific colony counter.
All plates with colonies were analyzed except when colony numbers were so high that the edges of individual colonies could not be determined accurately. Plating efficiency (PE) of each tumour sample was calculated first: PE is a ratio of the number of colonies to the number of cells seeded (sum of all the colonies countable in all the plates of the same sample divided by the sum of cells plated in the same plates). The PE of control tumours was averaged for the calculation of surviving fraction (SF): SF is based on the number of colonies formed in drug and/or radiation treated cells relative to that of untreated control (PE of treated tumor sample divided by PE of control). All treated data points were compared separately to the average of the controls. Finally a Clonogenic Survival Enhancement Ratio (CS-ER) was calculated: the SF of irradiated control groups were divided by the SF of treatment groups to determine treatment group-specific CS-ER values, and these were assigned scores based on defined response ranges: values>6=A, 4-6=B, <4=C.

[2] = Pharmacokinetic study in mice (IV and PO), plasma; assay type: in vivo, mouse; settings: for Rsq: Mouse Plasma, fit of NCA; for Cmax: read-out: Cmax (5 min)
Method: Pharmacokinetic analysis of compounds was conducted following bolus intravenous (IV) or bolus oral (PO) gavage in mice. Female mice (C57BL/6) in the 17-26 g range were weighed, and then administered an individually prescribed dose volume based on body weight of formulated compound via the intravenous (IV; tail vein) or oral gavage (PO) route (IV 5 mL/kg; PO 10 mL/kg). At selected timepoints post administration, blood was collected into vials with anticoagulant, processed for plasma by centrifugation, and then kept frozen ([…]) until analysis.
The in-vivo study plasma samples were analyzed using Ultra Performance Liquid Chromatography (UPLC) with tandem mass spectrometry (MS/MS) detection in multiple reaction monitoring (MRM) mode. A generic bioanalytical method involving plasma sample extraction and cleanup by protein precipitation with acetonitrile was used followed by UPLC-MS/MS analysis.
A brief example of a generic bioanalytical UPLC-MS/MS method used for analysis of compounds in the in-vivo study plasma samples is as follows. Plasma samples were spiked with internal standard prior to extraction and cleanup by protein precipitation with ice cold acetonitrile containing 0.1% (v/v) ammonium hydroxide at a ratio of 3:1 (solvent:plasma) and centrifuged at 18213 rcf for 15 minutes at 4° C. to pellet precipitates. Aliquots of supernatants were transferred to a 96-well plate and evaporated to dryness at 40° C. under a stream of nitrogen gas. Samples were reconstituted in 50:50 acetonitrile/10 mM ammonium acetate buffer pH 8, mixed thoroughly and analyzed using Ultra Performance Liquid Chromatography (UPLC) with tandem mass spectrometry (MS/MS) detection in multiple reaction monitoring (MRM) mode. Matrix-matched calibration standards and quality control (QC) samples were prepared in naïve C57Bl/6 mouse plasma. The UPLC column used was Waters Acquity UPLC BEH C18 1.7 um, 2.1 mm×50 mm (with guard column). The UPLC mobile phase consisted of: Mobile phase A: 10 mM ammonium acetate in Water pH 8, and Mobile phase B: Acetonitrile. Separation was accomplished with a linear gradient of 5% mobile phase B to 95% mobile phase B in 2 min, and a flow rate of 0.35 mL/min. The MS/MS data acquisition was accomplished using 3 MRM Transitions in ESI+ mode. Parent ion mass 508.37 m/z-to-Daughter ions (m/z) 117.05, 232.13 and 270.22. The quantitation of concentrations in test samples was achieved by matrix-matched calibration with normalization using an internal standard. Data acquisition and analysis were performed using Waters MassLynx software with TargetLynx application manager.
Estimation of PK parameters was performed using independent noncompartmental model method by PHOENIX WinNonlin software.

[3] = female, C57BL/6, po, mouse plasma, PC, 3 mg/kg
[4] = female, C57BL/6, mouse plasma, IV, 1 mg/kg
[5] = female, C57BL/6, mouse plasma, IV, 3 mg/kg
[6] = female, C57BL/6, mouse plasma, PO, 10 mg/kg
[7] = female, C57BL/6, mouse plasma, IV, 3 mg/kg, read-out: AUCINF—obs
[8] = female, C57BL/6, mouse plasma, PO, 10 mg/kg, read-out: AUCINF—obs

Row | SMILES | CS-ER Range Score ([1]; 30 mpk + 8 Gy, 2 h) | CS-ER Range Score ([1]; 30 mpk + 8 Gy, 4 h) | AUC(0-t) [2, 5] [ng·h/mL] | half-life [2, 5] [h] | AUC(0-t) [2, 6] [ng·h/mL] | half-life [2, 6] [h] | Cl_obs ([2]; mouse plasma, IV, 3 mg/kg) [mL/h/kg] | Vz_obs ([2]; mouse plasma, IV, 3 mg/kg) [mL/kg] | Cl_obs ([2]; mouse plasma, PO, 10 mg/kg) [mL/h/kg] | Vz_obs ([2]; mouse plasma, PO, 10 mg/kg) [mL/kg] | AUC(0-inf) [2, 7] [ng·h/mL] | Cmax [2, 5] [ng/mL] | AUC(0-inf) [2, 8] [ng·h/mL] | Cmax [2, 6] [ng/mL] | AUC—% Extrap—obs ([2]; mouse plasma, IV, 3 mg/kg) [%] | AUC—% Extrap—obs ([2]; mouse plasma, PO, 10 mg/kg) [%] | F ([2]; mouse, PO, 10 mg/kg) [%] | other results
1 | CN(C)C(=O)COc1cnc(N[C@H]2CC[C@@H](Oc3nc(N4CCOCC4)cc4ncccc34)CC2)nc1 [Compound 54, N,N-Dimethyl-2-((2-(((1s,4s)-4-((7-morpholino-1,6-naphthyridin-5-yl)oxy)cyclohexyl)amino)pyrimidin-5-yl)oxy)acetamide] |  |  |  |  |  |  |  |  |  |  |  |  |  |  |  |  |  | CS-ER Range Score ([1]; 100 mpk + 10 Gy, 0.5 h): B (4-6=B); CS-ER Range Score ([1]; 100 mpk + 10 Gy, 4 h): A (values>6=A); CS-ER Range Score ([1]; 100 mpk + 10 Gy, 8 h): B (4-6=B); CS-ER Range Score ([1]; 100 mpk + 10 Gy, 24 h): A (values>6=A); AUC(0-t) [2, 3]: 7650 ng·h/mL; Cmax at 5 min [2, 3]: 2220 ng/mL; half-life [2, 3]: 2.33 h; AUC(0-inf) ([2]; female, C57BL/6, po, mouse plasma, PC, 3 mg/kg, read-out: AUCINF—obs): 7660 ng·h/mL; AUC(0-t) [2, 4]: 3700 ng·h/mL; C0 [2, 4]: 3310 ng/mL; Cmax at 5 min [2, 4]: 2820 ng/mL; half-life [2, 4]: 1.69 h; AUC(0-inf) ([2]; female, C57BL/6, mouse plasma, IV, 1 mg/kg, read-out: AUCINF—obs): 3710 ng·h/mL; AUC—% Extrap—obs ([2]; mouse plasma, IV, 1 mg/kg): 0.10%; Cl_obs ([2]; mouse plasma, IV, 1 mg/kg): 264 mL/h/kg; Vz_obs ([2]; mouse plasma, IV, 1 mg/kg): 646 mL/kg; AUC—% Extrap—obs ([2]; mouse plasma, PC, 3 mg/kg): 0.07%; Cl_obs ([2]; mouse plasma, PC, 3 mg/kg): 358^b mL/h/kg; Vz_obs ([2]; mouse plasma, PC, 3 mg/kg): 1205^a mL/kg; F ([2]; mouse, PC, 3 mg/kg): 74%
2 | O=C(COc1cnc(N[C@H]2CC[C@@H](Oc3nc(N4CCOCC4)cc4ncccc34)CC2)nc1)N1CCOCC1 [Compound 61, 1-Morpholino-2-((2-(((1s,4s)-4-((7-morpholino-1,6-naphthyridin-5-yl)oxy)cyclohexyl)amino)pyrimidin-5-yl)oxy)ethan-1-one] | C (<4=C) | B (4-6=B) | 5210 | 2.2 | 12600 | 2.05 | 561.75 | 1784.9 | 795.88 | 2356.41 |  |  |  |  |  |  |  | Rsq ([2]; IV, 3 mg/kg): 0.97; Rsq ([2]; PO, 10 mg/kg): 0.93; F ([2]; Mouse, PO 10 mg/kg vs IV 3 mg/kg): 72%; Cmax at 5 min [2, 5]: 4900 ng/mL; AUC(0-inf) ([2]; female, C57BL/6, mouse plasma, IV, 3 mg/kg, read-out: AUCINF_obs): 5340 ng·h/mL; Cmax at 5 min [2, 6]: 3510 ng/mL; AUC(0-inf) ([2]; female, C57BL/6, mouse plasma, PO, 10 mg/kg, read-out: AUCINF_obs): 12600 ng·h/mL; AUC_% Extrap_obs ([2]; mouse plasma, IV, 3 mg/kg): 2.45%; AUC_% Extrap_obs ([2]; mouse plasma, PO, 10 mg/kg): 0.05%
3 | CN1CCN(CCOc2cnc(N[C@H]3CC[C@@H](Oc4nc(N5CCOCC5)cc5ncccc45)CC3)nc2)CC1 [Compound 69, 5-(2-(4-Methylpiperazin-1-yl)ethoxy)-N-((1s,4s)-4-((7-morpholino-1,6-naphthyridin-5-yl)oxy)cyclohexyl)pyrimidin-2-amine] |  | C (<4=C) | 1630 | 4.63 | 5680 | 5.4 | 1321.88 | 8824.88 | 1646.25 | 12835.77 | 2270 | 611 | 6070 | 549 | 28.28 | 6.56 | 105 | 
4 | O=C(COc1cnc(N[C@H]2CC[C@@H](Oc3nc(N4CCOCC4)cc4ncccc34)CC2)nc1)N1CCC1 [Compound 75, 1-(Azetidin-1-yl)-2-((2-(((1s,4s)-4-((7-morpholino-1,6-naphthyridin-5-yl)oxy)cyclohexyl)amino)pyrimidin-5-yl)oxy)ethan-1-one] | B B (4-6=B) | B B (4-6=B) | 7960 | 1.67 | 18200 | 2.17 | 367.01 | 885.15 | 548.06 | 1715.97 | 8170 | 6020 | 18200 | 5590 | 2.63 | 0.07 | 69 | 
5 | CN(C)C(=O)COc1ccc(C(=O)N[C@H]2CC[C@@H](Oc3nc(N4CCOCC4)cc4ncccc34)CC2)cn1 [Compound 117, 6-(2-(dimethylamino)-2-oxoethoxy)-N-((1s,4s)-4-((7-morpholino-1,6-naphthyridin-5-yl)oxy)cyclohexyl)nicotinamide] | C (<4=C) | B (4-6=B) |  |  |  |  |  |  |  |  |  |  |  |  |  |  |  | 
6 | O=S(=O)(CF)Nc1cnc2cc(N3CCOCC3)nc(O[C@H]3CC[C@@H](Nc4ncccn4)CC3)c2c1 [Compound 192, 1-fluoro-N-(7-morpholino-5-(((1s,4s)-4-(pyrimidin-2-ylamino)cyclohexyl)oxy)-1,6-naphthyridin-3-yl)methanesulfonamide] | A (values>6=A) | B (4-6=B) |  |  |  |  |  |  |  |  |  |  |  |  |  |  |  | 
